Measured values reported in patent US6492357B1, “Compositions and methods for controlling insects which damage rice and other crops” (Aventis CropScience, S.A., priority 1999, dated 2002).

Legend:
Type in all cases: in vivo
[1] = system: Nephotettix cincticeps (green leaf hopper); assay: Activity against Nephotettix cincticeps (green leaf hopper), % mortality; conditions: for activity against Nephotettix cincticeps (green leaf hoppers), in words: compound by itself
From the text: In experiments on activity against Nephotettix spp. (rice leaf hoppers), for example, Nephotettix cincticeps (green leaf hopper), carried out on representative compounds of the first preferred embodiment, the following results (wherein ppm indicates the concentration of the compound in parts per million of the test solution applied) have been obtained, as shown in Table 7: […]

[2] = system: Nilaparvata lugens (brown planthoppers); assay: Activity against Nilaparvata lugens (brown planthoppers); conditions: compound by itself
[3] = system: Cnaphalocrocis medinalis (rice leaf rollers); assay: Activity against Cnaphalocrocis medinalis (rice leaf rollers); conditions: compound by itself

## COC(=O)N(C(=O)N1COC2(C(=O)OC)Cc3cc(Cl)ccc3C2=N1)c1ccc(OC(F)(F)F)cc1 (stereo not drawn) [Indoxacarb, indoxacarb]
[1]; Nephotettix cincticeps, Indoxacarb 6.25 ppm alone (Ethiprole 0 ppm)
  mortality at 6.25 ppm: 0%
[1]; Nephotettix cincticeps, Indoxacarb 12.5 ppm alone (Ethiprole 0 ppm)
  mortality at 12.5 ppm: 16.2%
[1]; Nephotettix cincticeps, Indoxacarb 25 ppm alone (Ethiprole 0 ppm)
  mortality at 25 ppm: 38%
[1]
  activity against Nephotettix cincticeps (green leaf hoppers), in words: some activity by itself
[1]; listed as indoxacarb
  activity against Nephotettix cincticeps (green leaf hoppers), in words: active
[2]
  activity against Nilaparvata lugens (brown planthoppers), in words: not particularly active
[2]; listed as indoxacarb
  activity against Nilaparvata lugens (brown planthoppers), in words: not particularly effective
[3]
  activity against Cnaphalocrocis medinalis (rice leaf rollers), in words: very active
[3]; listed as indoxacarb
  activity against Cnaphalocrocis medinalis (rice leaf rollers), in words: active

## CC[S+]([O-])c1c(C#N)nn(-c2c(Cl)cc(C(F)(F)F)cc2Cl)c1N (stereo not drawn) [Ethiprole, ethiprole]
[1]
  activity against Nephotettix cincticeps (green leaf hoppers), in words: some activity by itself
[2]
  activity against Nilaparvata lugens (brown planthoppers), in words: shows activity
[3]
  activity against Cnaphalocrocis medinalis (rice leaf rollers), in words: not particularly active
